Results taken from the supplement of paper PMC11451515.

Tested on: P12-Ichikawa
Assay: cell viability relative to DMSO control; higher = less cytotoxic
Settings: 48 h
Procedure, shortened: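 NOMO1 or SEM (500 cells/well) or P12-Ichikawa (1000 cells/well) leukemia cells were adapted for at least four passages in each medium. They were seeded in 1536-well plates (5 μl) and pin-dosed with library compounds in DMSO over an 11-point threefold series, 47 μM to 0.79 nM. CellTiter-Glo One luminescence was read after 48 h at 37°C. Viability is the per-plate percentage relative to DMSO wells, with cell-free wells as background.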

[1] = HPLM + 10% dialyzed FBS, 0.000781 µM
[2] = HPLM + 10% dialyzed FBS, 0.00234 µM
[3] = HPLM + 10% dialyzed FBS, 0.00702 µM
[4] = HPLM + 10% dialyzed FBS, 0.0211 µM
[5] = HPLM + 10% dialyzed FBS, 0.0632 µM
[6] = HPLM + 10% dialyzed FBS, 0.19 µM
[7] = HPLM + 10% dialyzed FBS, 0.569 µM
[8] = HPLM + 10% dialyzed FBS, 1.71 µM
[9] = HPLM + 10% dialyzed FBS, 5.12 µM
[10] = HPLM + 10% dialyzed FBS, 15.4 µM
[11] = HPLM + 10% dialyzed FBS, 46.1 µM
[12] = RPMI 5 mM glucose + 10% FBS, 0.000781 µM
[13] = RPMI 5 mM glucose + 10% FBS, 0.00234 µM
[14] = RPMI 5 mM glucose + 10% FBS, 0.00702 µM
[15] = RPMI 5 mM glucose + 10% FBS, 0.0211 µM
[16] = RPMI 5 mM glucose + 10% FBS, 0.0632 µM
[17] = RPMI 5 mM glucose + 10% FBS, 0.19 µM
[18] = RPMI 5 mM glucose + 10% FBS, 0.569 µM
[19] = RPMI 5 mM glucose + 10% FBS, 1.71 µM
[20] = RPMI 5 mM glucose + 10% FBS, 5.12 µM
[21] = RPMI 5 mM glucose + 10% FBS, 15.4 µM
[22] = RPMI 5 mM glucose + 10% FBS, 46.1 µM
[23] = RPMI 5 mM glucose + 10% dialyzed FBS, 0.000781 µM
[24] = RPMI 5 mM glucose + 10% dialyzed FBS, 0.00234 µM
[25] = RPMI 5 mM glucose + 10% dialyzed FBS, 0.00702 µM
[26] = RPMI 5 mM glucose + 10% dialyzed FBS, 0.0211 µM
[27] = RPMI 5 mM glucose + 10% dialyzed FBS, 0.0632 µM
[28] = RPMI 5 mM glucose + 10% dialyzed FBS, 0.19 µM
[29] = RPMI 5 mM glucose + 10% dialyzed FBS, 0.569 µM
[30] = RPMI 5 mM glucose + 10% dialyzed FBS, 1.71 µM
[31] = RPMI 5 mM glucose + 10% dialyzed FBS, 5.12 µM
[32] = RPMI 5 mM glucose + 10% dialyzed FBS, 15.4 µM
[33] = RPMI 5 mM glucose + 10% dialyzed FBS, 46.1 µM

SMILES | cell viability [1] [%] | cell viability [2] [%] | cell viability [3] [%] | cell viability [4] [%] | cell viability [5] [%] | cell viability [6] [%] | cell viability [7] [%] | cell viability [8] [%] | cell viability [9] [%] | cell viability [10] [%] | cell viability [11] [%] | cell viability [12] [%] | cell viability [13] [%] | cell viability [14] [%] | cell viability [15] [%] | cell viability [16] [%] | cell viability [17] [%] | cell viability [18] [%] | cell viability [19] [%] | cell viability [20] [%] | cell viability [21] [%] | cell viability [22] [%] | cell viability [23] [%] | cell viability [24] [%] | cell viability [25] [%] | cell viability [26] [%] | cell viability [27] [%] | cell viability [28] [%] | cell viability [29] [%] | cell viability [30] [%] | cell viability [31] [%] | cell viability [32] [%] | cell viability [33] [%]
Cn1cc(-c2cnn3c(N)c(Br)c([C@@H]4CCCNC4)nc23)cn1 | 96.1 | 102 | 99.5 | 97.5 | 102 | 99.7 | 91.3 | 86.4 | 16.8 | 5.55 | 6.43 | 91.6 | 98.8 | 94 | 100 | 93.4 | 96.5 | 93.8 | 77.3 | 13.1 | 3.15 | 3.91 | 86.9 | 103 | 95.9 | 95.1 | 89.8 | 99 | 90.2 | 77.3 | 12.2 | 4.05 | 5.37
CCc1c(O)cc(O)c(C(=O)c2ccc(OCCN3CCOCC3)c(OC)c2)c1CC(=O)N(CCOC)CCOC | 102 | 105 | 118 | 112 | 112 | 105 | 104 | 87.6 | 59.9 | 41.1 | 40.9 | 100 | 101 | 113 | 105 | 108 | 103 | 93.5 | 78 | 41.1 | 32.7 | 35.4 | 106 | 102 | 105 | 110 | 110 | 104 | 85 | 84.5 | 42.6 | 32 | 35
CCOC(CN1C(=O)[C@](CC(=O)Nc2ccc(C)cc2)(NC(=O)Nc2ccc(C)cc2)c2ccccc21)OCC | 103 | 105 | 109 | 111 | 105 | 109 | 115 | 108 | 111 | 111 | 19.8 | 102 | 107 | 101 | 108 | 105 | 105 | 105 | 117 | 101 | 106 | 34.8 | 100 | 104 | 93.7 | 107 | 102 | 104 | 116 | 96.3 | 102 | 98 | 37.6
O=C(Nc1ccc([N+](=O)[O-])cc1Cl)c1cc(Cl)ccc1O | 95.3 | 105 | 98.6 | 102 | 107 | 106 | 105 | 88 | 46 | 12.9 | 24.7 | 92.2 | 90.9 | 96 | 92.9 | 104 | 106 | 102 | 71.6 | 33 | 17 | 26.3 | 81.5 | 92.7 | 81.4 | 91.9 | 87.2 | 88 | 94.2 | 69 | 31.4 | 32.1 | 5.22
CN(CCOc1ccc(NS(C)(=O)=O)cc1)CCc1ccc(NS(C)(=O)=O)cc1 | 108 | 114 | 119 | 115 | 126 | 127 | 127 | 111 | 118 | 123 | 121 | 118 | 127 | 116 | 126 | 121 | 129 | 131 | 126 | 125 | 136 | 126 | 113 | 114 | 114 | 114 | 117 | 129 | 123 | 122 | 120 | 120 | 115
CCC(=O)OC1CCC2C3CCC/4=C/C(=O)CC[C@@]4(C)C3CC[C@]12C (some centres undefined) | 116 | 120 | 126 | 129 | 126 | 127 | 132 | 128 | 129 | 125 | 117 | – | – | – | – | – | – | – | – | – | – | – | – | – | – | – | – | – | – | – | – | – | –
CN[C@H]1[C@H](O[C@@H]2[C@H](O[C@@H]3[C@@H](O)[C@@H](O)[C@@H](NC(=N)N)[C@@H](O)[C@H]3NC(=N)N)O[C@H](C)[C@@]2(O)C=O)O[C@@H](CO)[C@@H](O)[C@H]1O | 117 | 117 | 120 | 108 | 112 | 115 | 110 | 110 | 99.9 | 108 | 111 | 108 | 109 | 107 | 112 | 120 | 122 | 102 | 95.5 | 94.7 | 97.8 | 103 | 118 | 115 | 136 | 123 | 112 | 105 | 89.3 | 86 | 105 | 104 | 116
